Results published in patent publication US20240051958A1, “DIACYLGLYCEROL KINASE (DGK) ALPHA INHIBITORS AND USES THEREOF” (priority 2022, published 2024).

Columns and labels:
[1] = biological target: DGKA (Homo sapiens (Human), UniProt P23743); experiment: DGKA Inhibition ADP-Glo Assay; format: biochemical; conditions: 40 μM ATP, 200 μM DLG in substrate working solution, 25° C., 60 min
Experimental: The DGKA inhibition reactions were performed using ADP-Glo assay. The reactions were carried out in 50 mM HEPES, 100 mM NaCl, 10 mM MgCl2, 1 mM CaCl2, 0.005% TritonX-100 and 1 mM DTT as working solution (pH=7.5). 30 nL DMSO solution of each test compound (Top concentration 0.4 μM with 10 point, 4-fold dilution series for each compound) were transferred to 384 well plate by Echo and 5 μL DGKA (SignalChem, D21-10BG) enzyme working solution at 2×final reaction concentration was added to each well. After incubated at 25° C. for 15 minutes, 5 μL substrate working solution contain 40 μM ATP (Promega, V915B) and 200 μM DLG (SignalChem, D430-59) were added to initiate reaction. After enzymatic reaction at 25° C. for 60 min, ADP Glo assay reagents (Promega, V9102) were added and luminescence was recorded using an EnVision following the instruction of manual. […] The IC50 value was calculated via a regression analysis of the inhibition rate.

[2] = Pharmacokinetic Profile Evaluation (mouse PK); format: in vivo, CD-1 mice; conditions: CD-1, plasma, oral administration at 5 mg/kg
Experimental: Species and strain: CD-1 mice of SPF. Source: Sino-British SIPPR/BK Lab Animal Ltd, Shanghai. 3 mice were intravenously administrated with given compounds (Formulation: 5% DMSO+10% Solutol+85% Saline) or orally gavage administrated with given compounds (Formulation: 5% DMSO+10% Solutol+85% Saline). The blood samples were taken via cephalic vein at timepoints 0.083 h, 0.25 h, 0.5 h, 1 h, 2 h, 4 h, 8 h and 24 h after intravenous administration or at timepoints 0.25 h, 0.5 h, 1 h, 2 h, 4 h, 6 h, 8 h and 24 h after oral gavage administration, 30 μL/time point. Blood samples were placed in tubes containing K2-EDTA and stored on ice until centrifuged. The blood samples were centrifuged at 6800 g for 6 minutes at 2-8° C. within 1 h after collected and stored frozen at approximately −80° C. An aliquot of 10 μL plasma samples were protein precipitated with 200 μL MeOH in which contains 10 ng/mL Verapamil (IS). The mixture was vortexed for 1 min and centrifuged at 18000 g for 7 min. Transfer 180 μL supernatant to 96 well plates. An aliquot of 6 μL supernatant was injected for LC-MS/MS analysis by LC-MS/MS-04 (API4000) instrument. The analytical results were confirmed using quality control samples for intra-assay variation. The accuracy of >66.7% of the quality control samples should be between 80-120% of the known value(s). Standard set of parameters including Area Under the Curve (AUC(0-t) and AUC(0-∞)), elimination half-live (T1/2), maximum plasma concentration (Cmax), will be calculated using noncompartmental analysis modules in FDA certified pharmacokinetic program Phoenix WinNonlin 7.0 (Pharsight, USA).

[3] = test system: Human Pan T cells; experiment: IL-2 Release Detection Assay; format: cell-based; conditions: for Activation fold: Top activation/DMSO control; for Activation % at 100 nM: fitted curve at 100 nM/DMSO control*100%
Experimental: Add dilutions of compounds into the cells and incubate at 37° C. &5% CO2 for 24 hours. IL-2 in cell supernatant was detected by ELISA Kit (R&D, DY202). […] Top and Bottom: Plateaus in same units as Y. LogEC50: same log units as X. Activation fold: Top activation/DMSO control. Activation % at 100 nM: Activation of non-linear regression equation curve at the concentration of 100 nM/DMSO control*100%.

Chain of DGKA (P23743 whole entry): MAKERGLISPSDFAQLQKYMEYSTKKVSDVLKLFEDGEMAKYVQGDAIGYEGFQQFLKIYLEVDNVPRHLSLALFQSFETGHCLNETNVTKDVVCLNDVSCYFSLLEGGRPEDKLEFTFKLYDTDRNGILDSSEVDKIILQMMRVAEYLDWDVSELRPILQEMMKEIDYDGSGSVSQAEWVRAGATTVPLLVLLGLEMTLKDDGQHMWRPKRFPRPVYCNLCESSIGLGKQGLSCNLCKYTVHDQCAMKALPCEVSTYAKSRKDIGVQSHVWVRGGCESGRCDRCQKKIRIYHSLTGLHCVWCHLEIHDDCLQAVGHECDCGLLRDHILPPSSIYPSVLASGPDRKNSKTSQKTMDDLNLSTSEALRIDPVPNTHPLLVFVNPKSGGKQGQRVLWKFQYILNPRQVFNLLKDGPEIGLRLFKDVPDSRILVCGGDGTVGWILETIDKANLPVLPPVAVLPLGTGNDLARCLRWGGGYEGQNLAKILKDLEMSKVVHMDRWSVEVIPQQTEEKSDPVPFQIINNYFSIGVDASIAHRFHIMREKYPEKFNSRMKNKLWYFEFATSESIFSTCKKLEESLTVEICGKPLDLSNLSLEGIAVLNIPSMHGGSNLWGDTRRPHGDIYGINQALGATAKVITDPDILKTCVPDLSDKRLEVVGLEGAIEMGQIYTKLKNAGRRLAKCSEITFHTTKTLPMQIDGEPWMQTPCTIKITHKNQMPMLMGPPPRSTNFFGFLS

SMILES | IC50 [1] | AUC(0-inf) [2] | AUC(0-t) [2] | Cmax [2] | half-life [2] | Activation fold [3] | Activation % at 100 nM [3]
Cc1ccc2oc(C3CCN(c4cc(=O)n(C)c5ccc(C#N)nc45)CC3)nc2c1 [Example 1, 5-methyl-8-(4-(5-methylbenzo[d]oxazol-2-yl)piperidin-1-yl)-6-oxo-5,6-dihydro-1,5-naphthyridine-2-carbonitrile] | 1990 pM | 6150 ng·h/mL | 5980 ng·h/mL | 1880 ng/mL | 1.46 h | 17.7 | 416%
Cn1c(=O)cc(N2CCC(c3nc4cc(F)ccc4o3)CC2)c2nc(C#N)ccc21 [Example 12, 8-(4-(5-fluorobenzo[d]oxazol-2-yl)piperidin-1-yl)-5-methyl-6-oxo-5,6-dihydro-1,5-naphthyridine-2-carbonitrile] | 1350 pM | 5940 ng·h/mL | 5460 ng·h/mL | 1100 ng/mL | 3.56 h | 8.5 | 340%
Cc1ccc2oc(C3CCN(c4cc(=O)n(C)c5cc(OCCO)c(C#N)nc45)CC3)nc2c1 [Example 23, 3-(2-hydroxyethoxy)-5-methyl-8-(4-(5-methylbenzo[d]oxazol-2-yl)piperidin-1-yl)-6-oxo-5,6-dihydro-1,5-naphthyridine-2-carbonitrile] | 270 pM | 12100 ng·h/mL | 12000 ng·h/mL | 1820 ng/mL | 3.51 h | 24.5 | 931%
Cc1ccc2oc(C3CCN(c4cc(=O)n(C)c5cc(O[C@@H]6CCOC6)c(C#N)nc45)CC3)nc2c1 [Example 28, (R)-5-methyl-8-(4-(5-methylbenzo[d]oxazol-2-yl)piperidin-1-yl)-6-oxo-3-((tetrahydrofuran-3-yl)oxy)-5,6-dihydro-1,5-naphthyridine-2-carbonitrile] | 140 pM | 3460 ng·h/mL | 3410 ng·h/mL | 677 ng/mL | 2.67 h | – | –
